Reference: patent US6986997B1, “Method for screening using an OAT1 transporter protein” (Fuji Bio Medix Co., Ltd., priority 1997, dated 2006)
Like-named read-outs stand apart in the source and are kept apart here.

Key:
[1] = tested on: basolateral organic anion transport system; settings: Ullrich and Rumrich, Am. J. Physiol. 254, F453-462, 1988; read-out: Km value previously reported for the basolateral organic anion transport system; cited from earlier work
rat OAT1 [2] = target: T1, rat OAT1 (Rattus norvegicus, UniProt O35956); assay: Uptake of radio labeled substances into oocytes expressing OAT1; type: cell-based
T1 construct: with full-length OAT1 cDNA labeled with; expressed in transfected cells; host or cells: Xenopus laevis oocytes injected with in vitro transcribed cRNA
T1 sequence (O35956 1-551): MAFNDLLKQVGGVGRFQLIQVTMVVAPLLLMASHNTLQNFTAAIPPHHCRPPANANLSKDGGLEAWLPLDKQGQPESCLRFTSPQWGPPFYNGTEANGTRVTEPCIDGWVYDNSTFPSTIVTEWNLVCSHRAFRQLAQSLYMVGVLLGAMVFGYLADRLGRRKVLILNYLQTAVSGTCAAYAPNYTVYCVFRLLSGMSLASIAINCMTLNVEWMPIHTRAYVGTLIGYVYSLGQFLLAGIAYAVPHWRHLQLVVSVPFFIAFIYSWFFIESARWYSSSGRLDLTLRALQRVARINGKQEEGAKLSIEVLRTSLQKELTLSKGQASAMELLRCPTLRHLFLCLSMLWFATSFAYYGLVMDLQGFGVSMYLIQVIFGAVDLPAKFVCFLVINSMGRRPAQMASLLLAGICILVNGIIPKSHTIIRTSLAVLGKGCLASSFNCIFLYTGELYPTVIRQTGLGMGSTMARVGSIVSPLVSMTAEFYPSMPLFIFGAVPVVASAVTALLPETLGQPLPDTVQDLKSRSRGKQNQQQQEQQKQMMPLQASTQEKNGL
Text: Several radio labeled compounds were examined whether they are taken up into oocytes via OAT1.
Control oocytes were those which were not injected with cRNA.

rat OAT1 [3] = target: T1, rat OAT1; assay: Cis-inhibition of 14C-PAH uptake in oocytes injected with rat OAT1 cRNA; type: cell-based; settings: 2 μM 14C-PAH, 2 mM non-labeled substance, ND96 solution; for inhibition at 1 h, 2 mM: rat, oocytes injected with rat OAT1 cRNA, probe 14C-PAH (p-aminohippurate), read-out: inhibition of OAT1-mediated 14C-PAH uptake
[4] = versus control oocytes not injected with cRNA

Row | transport of radio labeled substance into oocytes expressing OAT1 (rat OAT1 [2]; [4]) | cis-inhibitory effect on OAT1-mediated 14C-PAH uptake (in words) (rat OAT1 [3]) | inhibition at 1 h, 2 mM (rat OAT1 [3]) [%] | Compound | also measured
1 | transported | inhibited | – | Nc1nc2c(ncn2[C@@H]2O[C@@H]3COP(=O)(O)O[C@H]3[C@H]2O)c(=O)[nH]1 [cyclic-GMP] | –
2 | – | – | > 85 | CCn1cc(C(=O)O)c(=O)c2ccc(C)nc21 [nalidixic acid] | –
3 | transported | inhibited | – | O=c1[nH]c(=O)c2[nH]c(=O)[nH]c2[nH]1 [uric acid] | –

More lines, now with the values behind:

Row | Compound | transport of radio labeled substance into oocytes expressing OAT1 (rat OAT1 [2]; [4]) | cis-inhibitory effect on OAT1-mediated 14C-PAH uptake (in words) (rat OAT1 [3]) | inhibition at 1 h, 2 mM (rat OAT1 [3]) [%] | also measured
4 | Nc1ccc(C(=O)NCC(=O)O)cc1 [PAH, para-aminohippurate] | – | – | – | Km [1]: 80 µM
5 | C[C@H](CCC(=O)NCCS(=O)(=O)O)[C@H]1CC[C@H]2[C@@H]3[C@H](O)C[C@@H]4C[C@H](O)CC[C@]4(C)[C@H]3C[C@H](O)[C@]12C [^3H-taurocholic acid, taurocholic acid] | – | – | – | transport of radio labeled substance into oocytes expressing OAT1 (rat OAT1 [2]): not detected
6 | CC[N+](CC)(CC)CC [^14C-TEA, tetraethylammonium, reference compound] | not detected | – | – | –
7 | Nc1ncnc2c1ncn2[C@@H]1O[C@@H]2COP(=O)(O)O[C@H]2[C@H]1O [cyclic-AMP] | – | inhibited | – | transport of radio labeled substance into oocytes expressing OAT1 (rat OAT1 [2]): transported
8 | C=C(CC)C(=O)c1ccc(OCC(=O)O)c(Cl)c1Cl [ethacrynic acid] | – | – | > 85 | –
9 | COc1ccc2c(c1)c(CC(=O)O)c(C)n2C(=O)c1ccc(Cl)cc1 [indomethacin] | – | – | > 85 | –
10 | CCCC(CCC)C(=O)O [valproic acid] | – | – | > 85 | –
